Active and inactive are the calls of the source. The calls are words filed in the database; no cut-off is given here.
Assays:
[1] = system: HepG2; assay: Induction of ROS production in human HepG2 cells assessed as DCF fluorescence at 90 to 1000 ug/ml measured after 24 hrs by DCFH-DA staining based fluorescence analysis; type: toxicity, cell-based; conditions: hepg2, 24 h, at 90 to 1000 µg/mL, dose 90-1000 µg/ml
[2] = system: Pseudomonas aeruginosa; assay: Antibacterial activity against Pseudomonas aeruginosa ATCC 10145 assessed as inhibition of bacterial growth by measuring inhibition zone diameter at 100 ug/ml incubated for 24 hrs in presence of tobramycin by disc diffusion method (reference value: 13.25 +/-0.5 mm); type: functional; conditions: read-out: DIZ
[3] = system: Staphylococcus aureus; assay: Inhibition of virulence production in Staphylococcus aureus CECT 976 biofilms assessed as diameter of gelatinases halo at 1XMTC measured after 48 hrs (reference value: 11.5 to 11.8 mm); type: functional
[4] = system: Staphylococcus aureus; assay: Inhibition of virulence production in pre-established 24 hr-old Staphylococcus aureus CECT 976 biofilms assessed as diameter of protease halo at 10XMTC measured after 72 hrs (reference value: 12.5 to 13.3 mm); type: functional
[5] = system: Staphylococcus aureus; assay: Inhibition of virulence production in pre-established 24 hr-old Staphylococcus aureus CECT 976 biofilms assessed as diameter of protease halo at 10XMTC measured after 72 hrs in presence of 1XMIC tobramycin (reference value: 11.5 to 12 mm); type: functional
[6] = system: Staphylococcus aureus; assay: Antibiotic adjuvant activity against Staphylococcus aureus CECT 976 assessed as potentiation of tobramycin-induced antibiofilm activity by measuring reduction in metabolic activity of biofilm cells at 500 ug/ml in presence of tobramycin by resazurin staining based fluorescence analysis; type: functional, organism-based; conditions: dose 500.0 µg/ml
[7] = system: Staphylococcus aureus; assay: Inhibition of virulence production in Staphylococcus aureus CECT 976 biofilms assessed as diameter of gelatinases halo at 1/2XMTC measured after 48 hrs in presence of 1/2XMIC tobramycin (reference value: 10 to 10.8 mm); type: functional
[8] = system: Staphylococcus aureus; assay: Inhibition of virulence production in Staphylococcus aureus CECT 976 biofilms assessed as diameter of lipases halo at 1/2XMTC measured after 48 hrs (reference value: 11.5 to 13.3 mm); type: functional
[9] = system: Staphylococcus aureus; assay: Inhibition of virulence production in pre-established 24 hr-old Staphylococcus aureus CECT 976 biofilms assessed as diameter of protease halo at 10XMTC measured after 72 hrs in presence of 1/2XMIC tobramycin (reference value: 11.8 to 12.3 mm); type: functional
[10] = system: Staphylococcus aureus; assay: Inhibition of virulence production in pre-established 24 hr-old Staphylococcus aureus CECT 976 biofilms assessed as diameter of gelatinases halo at 10XMTC measured after 48 hrs in presence of 1/2XMIC tobramycin (reference value: 9.3 to 9.5 mm); type: functional
[11] = system: Pseudomonas aeruginosa; assay: Antibiotic adjuvant activity against preestablished 24-hr old Pseudomonas aeruginosa ATCC 10145 assessed as potentiation of ciprofloxacin-induced antibiofilm activity by measuring reduction in metabolic activity of biofilm cells at 1000 ug/ml in presence of 1/8XMIC ciprofloxacin by resazurin staining based fluorescence analysis; type: functional, organism-based; conditions: dose 1000.0 µg/ml
[12] = system: Staphylococcus aureus; assay: Inhibition of virulence production in pre-established 24 hr-old Staphylococcus aureus CECT 976 biofilms assessed as diameter of lipases halo at 10XMTC measured after 48 hrs in presence of 1/2XMIC tobramycin (reference value: 11.5 to 12.3 mm); type: functional
[13] = system: Pseudomonas aeruginosa; assay: Antibiofilm activity against preestablished 24 hr-old Pseudomonas aeruginosa ATCC 10145 assessed as biomass removal at 1000 to 10000 ug/ml measured after 24 hrs by crystal violet staining method; type: functional; conditions: dose 1000-10000 µg/ml, at 1000 to 10000 µg/mL
[14] = Metal chelating activity at iron(III) in chrome azurol sulphonate solution at 1000 ug/ml incubated for 30 mins by spectrophotometric analysis; conditions: dose 1000.0 µg/ml
[15] = system: Staphylococcus aureus; assay: Inhibition of virulence production in Staphylococcus aureus CECT 976 biofilms assessed as diameter of protease halo at 1/2XMTC measured after 72 hrs (reference value: 11.8 to 13.3 mm); type: functional
[16] = system: Staphylococcus aureus; assay: Inhibition of virulence production in Staphylococcus aureus CECT 976 biofilms assessed as diameter of protease halo at 1XMTC measured after 72 hrs (reference value: 12 to 13 mm); type: functional
[17] = system: Staphylococcus aureus; assay: Inhibition of virulence production in pre-established 24 hr-old Staphylococcus aureus CECT 976 biofilms assessed as diameter of gelatinases halo at 10XMTC measured after 48 hrs in presence of 1XMIC tobramycin (reference value: 9.5 to 10 mm); type: functional
[18] = system: Staphylococcus aureus; assay: Inhibition of virulence production in Staphylococcus aureus CECT 976 biofilms assessed as diameter of siderophores halo at 1XMTC measured after 48 hrs (reference value: 12 mm); type: functional
[19] = system: Staphylococcus aureus; assay: Antibacterial activity against Staphylococcus aureus CECT 976 assessed as inhibition of bacterial growth by measuring inhibition zone diameter at 1000 ug/ml incubated for 24 hrs in presence of tobramycin by disc diffusion method (reference value: 12.5 +/- 1.29 mm); type: functional; conditions: read-out: DIZ
[20] = system: Pseudomonas aeruginosa; assay: Antibiotic adjuvant activity against Pseudomonas aeruginosa ATCC 10145 assessed as potentiation of ciprofloxacin-induced antibiofilm activity by measuring reduction in biofilm cells culturability at 500 ug/ml measured after 24 hrs in presence of ciprofloxacin by visual counting method; type: functional, organism-based; conditions: dose 500.0 µg/ml
[21] = system: Staphylococcus aureus; assay: Antibiofilm activity against preestablished 24 hr-old Staphylococcus aureus CECT 976 assessed as reduction in metabolic activity of biofilm cells at MTC by resazurin staining based fluorescence analysis; type: functional, organism-based
[22] = system: Staphylococcus aureus; assay: Inhibition of virulence production in pre-established 24 hr-old Staphylococcus aureus CECT 976 biofilms assessed as diameter of gelatinases halo at 10XMTC measured after 48 hrs in presence of 1/4XMIC tobramycin (reference value: 10 to 11.3 mm); type: functional
[23] = system: Staphylococcus aureus; assay: Inhibition of virulence production in Staphylococcus aureus CECT 976 biofilms assessed as diameter of gelatinases halo at 1/2XMTC measured after 48 hrs (reference value: 10.8 to 11.5 mm); type: functional
[24] = system: Staphylococcus aureus; assay: Antibiofilm activity against Staphylococcus aureus CECT 976 assessed as reduction in biofilm cells culturability at 500 to 1000 ug/ml measured after 24 hrs by visual counting method; type: functional, organism-based; conditions: dose 500-1000 µg/ml
[25] = system: Staphylococcus aureus; assay: Bactericidal activity against Staphylococcus aureus CECT 976 assessed as bacterial killing incubated in MHB for 24 hrs and measured following culturing on agar plate for 24 hrs; type: functional; conditions: time 48 hrs
[26] = system: Staphylococcus aureus; assay: Inhibition of virulence production in Staphylococcus aureus CECT 976 biofilms assessed as diameter of protease halo at 1/2XMTC measured after 72 hrs in presence of 1/8XMIC tobramycin (reference value: 12.5 to 13.3 mm); type: functional
[27] = system: Staphylococcus aureus; assay: Antibiofilm activity against preestablished 24 hr-old Staphylococcus aureus CECT 976 assessed as biomass removal at 1000 to 10000 ug/ml measured after 24 hrs by crystal violet staining method; type: functional; conditions: dose 1000-10000 µg/ml, at 1000 to 10000 µg/mL
[28] = system: Staphylococcus aureus; assay: Antibiotic adjuvant activity against preestablished 24 hr-old Staphylococcus aureus CECT 976 assessed as potentiation of tobramycin-induced antibiofilm activity by measuring reduction of metabolic activity of biofilm cells at 10000 ug/ml in presence of 1/4XMIC tobramycin by resazurin staining based fluorescence analysis (reference value: 37%); type: functional

SMILES	Activity [1]	zone of inhibition at 100 µg/mL [2]	Activity [3]	Activity [4]	Activity [5]	Activity [6]	Activity [7]	Activity [8]	Activity [9]	Activity [10]	Activity [11]	Activity [12]	inhibition (INH) [13]	Activity [14]	Activity [15]	Activity [16]	Activity [17]	Activity [18]	zone of inhibition at 1000 µg/mL [19]	Activity [20]	also measured
O=c1cc(CO)occ1O [KOJIC ACID]	~ 80%	17.2 mm	0 mm	0 mm	0 mm	inactive	0 mm	2.8 mm	0 mm	0 mm	inactive	2 mm	15%	85%	0 mm	0 mm	0 mm	10 mm	13.2 mm	inactive	Activity [21]: inactive; Activity [22]: 0 mm; Activity [23]: 0 mm; Activity [24]: inactive; MBC [25]: > 1000 µg/mL; Activity [26]: 0 mm; inhibition (INH) [27]: 15%; inhibition at 10000 µg/mL [28]: 80%
Cc1occc(=O)c1O [MALTOL]	~ 116%	16.2 mm	0 mm	0 mm	0 mm	inactive	0 mm	3.5 mm	0 mm	0 mm	inactive	2.3 mm	15%	90%	0 mm	0 mm	0 mm	10 mm	19 mm	inactive	Activity [21]: inactive; Activity [22]: 0 mm; Activity [23]: 0 mm; Activity [24]: inactive; MBC [25]: > 1000 µg/mL; Activity [26]: 0 mm; inhibition (INH) [27]: 15%; inhibition at 10000 µg/mL [28]: 80%

Source: ChEMBL document CHEMBL6120994, “Unravelling the potential of natural chelating agents in the control of Staphylococcus aureus and Pseudomonas aeruginosa biofilms” (Eur J Med Chem, 2025)
